Experimental data taken from publication PMC5890689 (RSC Advances, 2018).
Entries after “also recorded” stand apart in the source; their conditions may differ. Like-named read-outs stand apart in the source and are kept apart here.

How the values were obtained:
[1] = tested on: MDA-MB-231 (human breast carcinoma cell line); experiment: SRB assay, MDA-MB-231; details: MDA-MB-231, 72 h, read-out: GI50 MDA-MB-231
CDK2/cyclin A = CDK2/cyclin A (Homo sapiens, UniProt P24941); experiment: CDK2/cyclin A kinase assay; type: biochemical
[2] = tested on: KB (nasopharyngeal carcinoma); experiment: SRB assay, KB; details: for GI50: Homo sapiens, 72 h, read-out: GI50 KB
A549 (lung cancer) [3] = experiment: SRB assay, A549; details: Homo sapiens, A549, 72 h, read-out: GI50 A549
CDK9/cyclin T1 = CDK9/cyclin T1 (Homo sapiens, UniProt P50750); experiment: CDK9/cyclin T1 kinase assay; type: biochemical
Sequence of CDK9/cyclin T1 (P50750 whole entry): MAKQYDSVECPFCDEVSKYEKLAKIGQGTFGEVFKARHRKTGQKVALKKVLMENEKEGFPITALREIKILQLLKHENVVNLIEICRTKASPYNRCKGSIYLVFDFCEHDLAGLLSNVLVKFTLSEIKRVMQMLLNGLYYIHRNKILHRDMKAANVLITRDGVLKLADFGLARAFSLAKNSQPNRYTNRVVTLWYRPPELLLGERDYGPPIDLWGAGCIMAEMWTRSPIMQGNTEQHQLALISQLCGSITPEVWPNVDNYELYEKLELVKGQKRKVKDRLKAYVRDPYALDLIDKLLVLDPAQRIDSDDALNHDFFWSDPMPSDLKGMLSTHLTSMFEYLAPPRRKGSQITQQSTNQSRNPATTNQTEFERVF
Sequence of CDK9/cyclin T1 (O60563 whole entry partner): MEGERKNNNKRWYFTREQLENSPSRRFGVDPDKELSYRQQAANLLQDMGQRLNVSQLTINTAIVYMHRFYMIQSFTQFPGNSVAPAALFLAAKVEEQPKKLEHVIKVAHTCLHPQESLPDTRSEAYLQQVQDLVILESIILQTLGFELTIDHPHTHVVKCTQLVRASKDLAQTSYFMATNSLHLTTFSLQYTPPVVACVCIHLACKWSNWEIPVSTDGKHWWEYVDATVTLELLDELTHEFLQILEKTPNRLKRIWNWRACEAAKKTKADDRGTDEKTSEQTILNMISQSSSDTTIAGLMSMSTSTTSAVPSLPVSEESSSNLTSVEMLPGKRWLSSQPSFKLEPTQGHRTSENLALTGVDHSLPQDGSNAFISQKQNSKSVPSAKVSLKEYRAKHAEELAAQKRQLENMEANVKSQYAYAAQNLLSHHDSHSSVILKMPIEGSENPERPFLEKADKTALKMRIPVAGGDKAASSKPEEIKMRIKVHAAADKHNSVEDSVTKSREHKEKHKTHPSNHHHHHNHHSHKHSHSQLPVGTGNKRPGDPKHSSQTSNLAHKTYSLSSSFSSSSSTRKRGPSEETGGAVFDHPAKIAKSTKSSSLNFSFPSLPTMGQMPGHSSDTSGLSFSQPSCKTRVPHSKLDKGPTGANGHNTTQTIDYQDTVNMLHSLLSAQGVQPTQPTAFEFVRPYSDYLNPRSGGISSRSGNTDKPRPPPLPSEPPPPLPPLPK

[4] = tested on: MCF-7 (Michigan Cancer Foundation-7); experiment: SRB assay, MCF-7; details: Homo sapiens, MCF7, 72 h, read-out: GI50 MCF-7
[5] = tested on: KB-vin (vincristine-resistant KB subline); details: SRB assay; cited from earlier work
[6] = tested on: KB (nasopharyngeal carcinoma); details: SRB assay; cited from earlier work
A549 (lung cancer) [7] = details: read-out: GI50 A549; SRB assay; cited from earlier work
MDA-MB-231 cells = experiment: Cell cycle analysis by flow cytometry; type: cell-based, human; details: 24 h, five-fold GI50 (2a 6.0 μM, 2d 8.0 μM, 3b 10.5 μM)
[8] = tested on: KB-vin (vincristine-resistant KB subline); experiment: SRB assay, KB-vin; details: 3 days, mean ± SD of three

SMILES | GI50 [1] [nM] | IC50 (CDK2/cyclin A) [nM] | GI50 [2] [nM] | GI50 (A549 (lung cancer) [3]) [nM] | IC50 (CDK9/cyclin T1) [nM] | GI50 [4] [nM] | GI50 KB-vin [5] [nM] | GI50 KB [6] [nM] | GI50 (A549 (lung cancer) [7]) [nM] | subtype selectivity for CDK9 over CDK2 (CDK9/cyclin T1; ratio of IC50 CDK2/cyclin A to CDK9/cyclin T1) [fold] | Effect on cell cycle progression (MDA-MB-231 cells) | GI50 KB ([2]; SRB assay, 3 days, mean ± SD of three) [nM] | GI50 KB-vin [8] [nM]
CC(=O)c1ccc(Nc2nc(Nc3cccc(NC(=O)CN(C)C)c3)ncc2F)cc1 [2b, N-(3-((4-((4-Acetylphenyl)amino)-5-fluoropyrimidin-2-yl)amino)phenyl)-2-(dimethylamino)acetamide] | 5800 ± 80 | 780 ± 40 | 2200 ± 370 | 2330 ± 30 | 390 ± 80 | 3800 ± 240 | – | – | – | – | – | – | –
CN(C)CCNC(=O)c1cccc(Nc2ncc(F)c(Nc3c(F)cccc3F)n2)c1 [3e, 3-((4-((2,6-Difluorophenyl)amino)-5-fluoropyrimidin-2-yl)amino)-N-(2-(dimethylamino)ethyl)benzamide] | 5420 ± 350 | 750 ± 140 | 3820 ± 110 | 720 ± 10 | 230 ± 10 | 6730 ± 230 | – | – | – | – | – | – | –
CN1CC[C@H](c2c(O)cc(O)c3c(=O)cc(-c4ccccc4Cl)oc23)[C@H](O)C1 [FVP, Flavopiridol] | – | – | – | – | – | – | 180 ± 10 | 160 ± 10 | 140 ± 10 | – | – | – | –
CN(C)CC(=O)Nc1cccc(Nc2ncc(F)c(Nc3c(F)cccc3F)n2)c1 [2e, N-(3-((4-((2,6-Difluorophenyl)amino)-5-fluoropyrimidin-2-yl)amino)phenyl)-2-(dimethylamino)acetamide] | 3980 ± 160 | – | 4780 ± 380 | 1310 ± 70 | – | 4490 ± 30 | – | – | – | – | – | – | –
CN(C)CC(=O)Nc1ccc(Nc2ncc(F)c(Nc3c(F)cccc3F)n2)cc1 [3k, N-(4-((4-((2,6-Difluorophenyl)amino)-5-fluoropyrimidin-2-yl)amino)phenyl)-2-(dimethylamino)acetamide] | 6010 ± 80 | – | 3800 ± 340 | 3040 ± 180 | – | 4480 ± 390 | – | – | – | – | – | – | –
CN(C)CC(=O)Nc1cccc(Nc2ncc(F)c(NN3CCN(C)CC3)n2)c1 [2h, 2-(Dimethylamino)-N-(3-((5-fluoro-4-((4-methylpiperazin-1-yl)amino)pyrimidin-2-yl)amino)phenyl)acetamide] | > 10000 | 5600 ± 530 | > 10000 | > 10000 | 2200 ± 320 | > 10000 | – | – | – | – | – | – | –
CN(C)CC(=O)Nc1cccc(Nc2ncc([N+](=O)[O-])c(Nc3c(F)cccc3F)n2)c1 [2i, N-(3-((4-((2,6-Difluorophenyl)amino)-5-nitropyrimidin-2-yl)amino)phenyl)-2-(dimethylamino)acetamide] | 5940 ± 330 | 780 ± 120 | 5730 ± 350 | 4900 ± 450 | 480 ± 80 | 10230 ± 30 | – | – | – | – | – | – | –
Cc1ccc(Nc2ncc(F)c(Nc3c(F)cccc3F)n2)cc1N1CCOCC1 [3o, N ^4-(2,6-difluorophenyl)-5-fluoro-N^2-(4-methyl-3-morpholinophenyl)pyrimidine-2,4-diamine] | 7000 ± 60 | 5600 ± 30 | 980 ± 50 | 850 ± 10 | 740 ± 40 | 3750 ± 280 | – | – | – | 7.5 | – | – | –
COc1ccc(Nc2nc(Nc3cccc(NC(=O)CN(C)C)c3)ncc2F)cc1 [2a, 2-(Dimethylamino)-N-(3-((5-fluoro-4-((4-methoxyphenyl)amino)pyrimidin-2-yl)amino)phenyl)acetamide] | 1200 ± 60 | 320 ± 280 | 570 ± 10 | 720 ± 10 | 300 ± 10 | 670 ± 60 | – | – | – | – | induced cell cycle arrest in G2/M phase; also recorded: induced cell cycle arrest at G2/M | – | –
CC(C)(C)NCC(=O)Nc1cccc(Nc2ncc(F)c(Nc3c(F)cccc3F)n2)c1 [3b, 2-(tert-Butylamino)-N-(3-((4-((2,6-difluorophenyl)amino)-5-fluoropyrimidin-2-yl)amino)phenyl)acetamide] | 2070 ± 120 | 380 ± 60 | 3270 ± 130 | 1310 ± 180 | 80 ± 1 | 2730 ± 480 | – | – | – | – | induced cell cycle arrest in G2/M phase; also recorded: induced cell cycle arrest at G2/M | – | –
CC(=O)O[C@H]1C(=O)[C@@]2(C)[C@H]([C@H](OC(=O)c3ccccc3)[C@]3(O)C[C@H](OC(=O)[C@H](O)[C@@H](NC(=O)c4ccccc4)c4ccccc4)C(C)=C1C3(C)C)[C@]1(OC(C)=O)CO[C@@H]1C[C@@H]2O [Paclitaxel, reference compound] | 7.76 ± 0.39 | – | – | 5.98 ± 0.4 | – | 8.78 ± 0.79 | – | – | – | – | – | 4.94 ± 0.21 | 1518.36 ± 141.54
CN1CCCN(c2cccc(Nc3ncc(F)c(Nc4c(F)cccc4F)n3)c2)CC1 [3n, N ^4-(2,6-Difluorophenyl)-5-fluoro-N^2-(3-(4-methyl-1,4-diazepan-1-yl)phenyl) pyrimidine-2,4-diamine] | 4770 ± 270 | 950 ± 270 | 4440 ± 420 | 710 ± 10 | 1600 ± 100 | 7160 ± 540 | – | – | – | – | – | – | –
CN(C)CC(=O)Nc1cccc(Nc2ncc(F)c(Nc3cc(F)cc(F)c3)n2)c1 [2g, N-(3-((4-((3,5-Difluorophenyl)amino)-5-fluoropyrimidin-2-yl)amino)phenyl)-2-(dimethylamino)acetamide] | 4640 ± 60 | 570 ± 50 | 560 ± 80 | 710 ± 60 | 490 ± 270 | 670 ± 30 | – | – | – | – | – | – | –
CC(C)CC(=O)Nc1cccc(Nc2ncc(F)c(Nc3c(F)cccc3F)n2)c1 [3a, N-(3-((4-((2,6-Difluorophenyl)amino)-5-fluoropyrimidin-2-yl)amino)phenyl)-3-methylbutanamide] | > 10000 | 1100 ± 150 | 590 ± 50 | 720 ± 40 | 480 ± 220 | 5970 ± 190 | – | – | – | – | – | – | –
CN(C)CCC(=O)Nc1cccc(Nc2ncc(F)c(Nc3c(F)cccc3F)n2)c1 [3c, N-(3-((4-((2,6-Difluorophenyl)amino)-5-fluoropyrimidin-2-yl)amino)phenyl)-3-(dimethylamino)propanamide] | 3240 ± 50 | 300 ± 70 | 2310 ± 110 | 1200 ± 50 | 65 ± 23 | 2650 ± 400 | – | – | – | – | – | – | –
CN1CCC(C(=O)Nc2cccc(Nc3ncc(F)c(Nc4c(F)cccc4F)n3)c2)CC1 [3d, N-(3-((4-((2,6-Difluorophenyl)amino)-5-fluoropyrimidin-2-yl)amino)phenyl)-1-methylpiperidine-4-carboxamide] | 3300 ± 230 | 130 ± 20 | 2600 ± 450 | 1090 ± 30 | 660 ± 20 | 6160 ± 140 | – | – | – | – | – | – | –
CN(C)CC(=O)Nc1cccc(Nc2ncc(F)c(Nc3ccc(N(C)C)cc3)n2)c1 [2d, 2-(Dimethylamino)-N-(3-((4-((4-(dimethylamino)phenyl)amino)-5-fluoropyrimidin-2-yl)amino)phenyl)acetamide] | 1640 ± 150 | 940 ± 430 | 3080 ± 160 | 1890 ± 190 | 320 ± 50 | 2830 ± 30 | – | – | – | – | induced cell cycle arrest in G2/M phase; also recorded: induced cell cycle arrest at G2/M | – | –
Cc1ccc(Nc2ncc(F)c(Nc3c(F)cccc3F)n2)cc1NC(=O)CN(C)C [3j, N-(5-((4-((2,6-Difluorophenyl)amino)-5-fluoropyrimidin-2-yl)amino)-2-methylphenyl)-2-(dimethylamino)acetamide] | 5310 ± 190 | – | 600 ± 40 | 1150 ± 80 | – | 2370 ± 620 | – | – | – | – | – | – | –
COc1ccc(Nc2ncc(F)c(Nc3c(F)cccc3F)n2)cc1NC(=O)CN(C)C [3i, N-(5-((4-((2,6-Difluorophenyl)amino)-5-fluoropyrimidin-2-yl)amino)-2-methoxyphenyl)-2-(dimethylamino)acetamide] | 4050 ± 140 | – | 2870 ± 240 | 700 ± 2 | – | 1880 ± 120 | – | – | – | – | – | – | –
CN1CCN(c2cccc(Nc3ncc(F)c(Nc4c(F)cccc4F)n3)c2)CC1 [3m, N ^4-(2,6-Difluorophenyl)-5-fluoro-N^2-(3-(4-methylpiperazin-1-yl)phenyl) pyrimidine-2,4-diamine] | 2840 ± 670 | 470 ± 40 | 400 ± 90 | 1250 ± 80 | 290 ± 2 | 7760 ± 520 | – | – | – | – | – | – | –
CN(C)CC(=O)Nc1cccc(Nc2ncc(F)c(Nc3ccc(Cl)cc3)n2)c1 [2c, N-(3-((4-((4-Chlorophenyl)amino)-5-fluoropyrimidin-2-yl)amino)phenyl)-2-(dimethylamino)acetamide] | 6770 ± 380 | 910 ± 110 | 2030 ± 320 | 2120 ± 260 | 1100 ± 20 | 3940 ± 310 | – | – | – | – | – | – | –
CN(C)CC(=O)Nc1cccc(Nc2ncc(F)c(Nc3c(Cl)cccc3Cl)n2)c1 [2f, N-(3-((4-((2,6-Dichlorophenyl)amino)-5-fluoropyrimidin-2-yl)amino)phenyl)-2-(dimethylamino)acetamide] | 13000 ± 380 | 1600 ± 110 | 7040 ± 80 | 3470 ± 440 | 570 ± 120 | 6020 ± 510 | – | – | – | – | – | – | –
